Holding throughout (type): biochemical
One assay concerns the target T1, NagZ (Bacillus subtilis, UniProt P40406).
T1 construct: codon-optimized synthetic gene in pEKEx3, overexpressed in C. glutamicum; cell extract, not purified
T1 sequence (P40406 17-642): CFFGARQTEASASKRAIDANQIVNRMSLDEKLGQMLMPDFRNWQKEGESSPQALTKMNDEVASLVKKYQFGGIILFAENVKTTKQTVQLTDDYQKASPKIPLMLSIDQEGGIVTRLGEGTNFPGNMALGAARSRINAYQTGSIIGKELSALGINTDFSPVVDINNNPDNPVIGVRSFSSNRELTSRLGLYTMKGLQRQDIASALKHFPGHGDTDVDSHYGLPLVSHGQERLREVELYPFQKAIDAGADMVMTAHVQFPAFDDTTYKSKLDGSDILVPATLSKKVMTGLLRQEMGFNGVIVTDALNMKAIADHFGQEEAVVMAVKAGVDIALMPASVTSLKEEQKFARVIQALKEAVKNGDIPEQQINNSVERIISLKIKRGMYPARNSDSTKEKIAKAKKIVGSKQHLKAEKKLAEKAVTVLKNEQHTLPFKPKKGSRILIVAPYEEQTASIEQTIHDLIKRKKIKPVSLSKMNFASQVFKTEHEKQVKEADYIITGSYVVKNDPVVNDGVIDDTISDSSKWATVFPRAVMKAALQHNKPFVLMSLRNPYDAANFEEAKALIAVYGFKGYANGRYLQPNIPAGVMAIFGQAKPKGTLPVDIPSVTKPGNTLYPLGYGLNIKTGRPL
As to the kind of experiment: p-nitrophenol release at […] nm. Particulars: 100 mM phosphate pH 7.0; cell extract of overexpressing C. glutamicum; turnover only.

Another assay concerns the target T2, ChiB (Serratia marcescens, UniProt P11797).
T2 construct: native form or fused to TAT signal peptide of Cg0955 (SP0955); pEKEx3 in C. glutamicum; cell extract and supernatant, not purified
T2 sequence (P11797 1-499 limits assumed): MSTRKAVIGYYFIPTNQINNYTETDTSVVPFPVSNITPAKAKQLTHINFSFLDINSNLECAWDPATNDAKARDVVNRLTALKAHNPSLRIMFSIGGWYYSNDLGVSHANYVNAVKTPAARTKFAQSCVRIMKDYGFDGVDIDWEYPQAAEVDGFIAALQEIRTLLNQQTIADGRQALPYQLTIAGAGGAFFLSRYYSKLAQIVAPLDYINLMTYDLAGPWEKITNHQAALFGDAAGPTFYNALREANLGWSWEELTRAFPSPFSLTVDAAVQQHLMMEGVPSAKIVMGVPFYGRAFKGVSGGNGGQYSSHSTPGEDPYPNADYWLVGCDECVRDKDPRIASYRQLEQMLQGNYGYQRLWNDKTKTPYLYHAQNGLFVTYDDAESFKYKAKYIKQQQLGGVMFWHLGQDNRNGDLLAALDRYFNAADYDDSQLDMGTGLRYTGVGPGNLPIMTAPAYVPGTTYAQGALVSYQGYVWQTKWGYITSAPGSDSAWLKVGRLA
Kind of assay: p-nitrophenol release at […] nm. The conditions noted are these: 100 mM phosphate pH 7.0; cell extract and supernatant of overexpressing C. glutamicum; turnover only.

Assay [1] has as its target T3, NagA2 fused to the C. glutamicum PhoD signal peptide (PhoD-nagA2) (Corynebacterium glutamicum, UniProt Q8NLT5).
T3 construct: gene Cgl2852; native signal peptide replaced by TAT signal peptide of PhoD (cg2485), expected to be cleaved on export; pEKEx3 in C. glutamicum; culture supernatant, not purified
As to the kind of experiment: p-nitrophenol release at […] nm, Eadie-Hofstee plot. The conditions noted are these: 100 mM phosphate pH 7.0; culture supernatant of overexpressing C. glutamicum.

For assay [2], the target named is T4, NagA2 lacking its own signal peptide (SP-less-nagA2) (Corynebacterium glutamicum, UniProt Q8NLT5).
T4 construct: gene Cgl2852; predicted native signal peptide removed; overexpressed from pEKEx3 in C. glutamicum; cell extract, not purified
Kind of assay: p-nitrophenol release at […] nm, Eadie-Hofstee plot. Particulars: 100 mM phosphate pH 7.0; cell extract fraction of overexpressing C. glutamicum.

Molecules are shown by their SMILES.

T3 sequence (Q8NLT5 entry or part of it): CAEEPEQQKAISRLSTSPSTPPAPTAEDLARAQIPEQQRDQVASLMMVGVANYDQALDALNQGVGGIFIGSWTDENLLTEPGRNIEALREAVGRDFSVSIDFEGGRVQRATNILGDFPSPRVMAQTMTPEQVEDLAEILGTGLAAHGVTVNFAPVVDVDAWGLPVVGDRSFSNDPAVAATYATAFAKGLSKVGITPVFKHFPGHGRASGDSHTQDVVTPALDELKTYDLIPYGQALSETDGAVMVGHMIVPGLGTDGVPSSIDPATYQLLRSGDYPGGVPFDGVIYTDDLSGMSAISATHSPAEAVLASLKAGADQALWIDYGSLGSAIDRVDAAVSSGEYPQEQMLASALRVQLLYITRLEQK
T4 sequence (Q8NLT5 entry or part of it): as above

Consider `CC(=O)N[C@H]1[C@H](Oc2ccc([N+](=O)[O-])cc2)O[C@H](CO)[C@@H](O)[C@@H]1O` [4-Nitrophenyl N-acetyl-β-D-glucosaminide], for which the “p-nitrophenol release at 405 nm” value on NagZ was “NagZ produced in C. glutamicum led to an intracellular specific activity of N-acetylglucosaminidase”.
For `CC(=O)N[C@H]1[C@H](Oc2ccc([N+](=O)[O-])cc2)O[C@H](CO)[C@@H](O[C@@H]2O[C@H](CO)[C@@H](O)[C@H](O)[C@H]2NC(C)=O)[C@@H]1O` [4-nitrophenyl N,N’-diacetyl-β-D-chitobioside], the “p-nitrophenol release at 405 nm” value on ChiB is recorded as “chitinase activity was quantified by measuring the hydrolysis of p-nitrophenol from 4-Nitrophenyl N,N’-diacetyl-β-D-chitobioside”. In addition, the Km in assay [1] was found to be 270 ± 66 µM; in assay [2] it was 266 ± 37 µM.

For the origin of these results see publication PMC4974736, “Corynebacterium glutamicum possesses β-N-acetylglucosaminidase” (BMC Microbiology, 2016).
